From US5641800A, “1H-indole-1-functional sPLA2 inhibitors” (Eli Lilly and Company, priority 1995, dated 1997) come the findings set out here.

Test [1] deals with T1, Human Secreted Phospholipase A2 (Homo sapiens, UniProt P14555).
T1 sequence (P14555 21-144): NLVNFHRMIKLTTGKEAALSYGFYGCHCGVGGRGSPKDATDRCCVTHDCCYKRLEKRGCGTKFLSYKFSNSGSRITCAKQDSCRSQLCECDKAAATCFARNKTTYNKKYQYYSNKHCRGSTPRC
The test can be described thus: Human secreted phospholipase A2 inhibition tests on guinea pig lung tissue (pleural strip contraction). Particulars: guinea pig lung pleural strips, sPLA2-induced contraction, 37° C., compound added 30 min. prior; Schild slope 1, apparent KB = dissociation constant of the inhibitor; read-out: Tissue test secreted PLA2, Apparent KB. The class given is tissue-based. From the text: Male Hartley strain guinea pigs (500-700 g) were killed by cervical dislocation and their heart and lungs removed intact and placed in aerated (95% 02 :5% CO2) Krebs buffer. Dorsal pleural strips (4×1×25 mm) were dissected from intact parenchymal segments (8×4×25 mm) cut parallel to the outer edge of the lower lung lobes. Two adjacent pleural strips, obtained from a single lobe and representing a single tissue sample, were tied at either end and independently attached to a metal support rod. One rod was attached to a Grass force-displacement transducer (Model FTO3C, product of Grass Medical Instruments Co., Quincy, Mass., USA). […] All tissues were placed in 10 ml jacketed tissue baths maintained at 37° C. The tissue baths were continuously aerated and contained a modified Krebs solution of the following composition (millimolar) NaCl, 118.2; KCl, 4.6; CaCl2.2H2 O, 2.5; MgSO4.7H2 O, 1.2; NaHCO3, 24.8; KH2 PO4, 1.0; and dextrose, 10.0. Pleural strips from the opposite lobes of the lung were used for paired experiments.
Initially tissues were challenged 3 times with KCl (40 mM) to test tissue viability and to obtain a consistent response. After recording the maximal response to KCl, the Elssues were washed and allowed to return to baseline before the next challenge. Cumulative concentration-response curves were obtained from pleural strips by increasing the agonist concentration (sPLA2) in the tissue bath by half-log10 increments while the previous concentration remained in contact with the tissues (Ref.1, supra.) Agonist concentration was increased after reaching the plateau of the contraction elicited by the preceding concentration. One concentration-response curve was obtained from each tissue. To minimize variability between tissues obtained from different animals, contractile responses were expressed as a percentage of the maximal response obtained with the final KCl challenge. […]
Data from different experiments were pooled and presented as a percentage of the maximal KCl responses (mean±S.E.). To estimate the drug induced rightward shifts in the concentration response curves, the curves were analyzed simultaneously using statistical nonlinear modeling methods similar to those described by Waud (1976), Equation 26, p. […] The Schild slope was determined to be 1, using statistical nonlinear modeling methods similar to those described by Waud 1976), Equation 27, p. […]
To estimate the drug-induced suppression of the maximal responses, sPLA2 responses (10 ug/ml) were determined in the absence and presence of drug, and percent suppression was calculated for each pair of tissues. […]

The target in test [2] is T2, human secreted PLA2 (Homo sapiens, UniProt P14555).
T2 sequence (P14555 21-144): T1 sequence (P14555 21-144)
The test can be described thus: Chromogenic assay, inhibition of recombinant human secreted phospholipase A2. The following applies: recombinant human sPLA2, diheptanoyl thio-PC substrate, pH 7.5, 40° C., 30 minutes, 405 nm; ± mean deviation (3-4 tests). The format is biochemical. The text has this: The following chromogenic assay procedure was used to identify and evaluate inhibitors of recombinant human secreted phospholipase A2. The assay described herein has been adapted for high volume screening using 96 well microtiter plates. A general description of this assay method is found in the article, "Analysis of Human Synovial Fluid Phospholipase A2 on Short Chain Phosphatidylcholine-Mixed Micelles: Development of a Spectrophotometric Assay Suitable for a Microtiterplate Reader", by Laure J. Reynolds, Lori L. Hughes, and Edward A Dennis, Analytical Biochemistry,204, pp. 190-197, 1992 (the disclosure of which is incorporated herein by reference):
Bovine Serum Albumin (fatty acid free) (1 g/L) (Sigma A-7030, product of Sigma Chemical Co. St. Louis Mo., USA)
racemic 1,2-bis(heptanoylthio)-1,2-dideoxy-sn-glycero-3-phosphorylcholine
A measured volume of racemic dipheptanoyl thio PC supplied in chloroform at a concentration of 100 mg/ml is taken to dryness and redissolved in 10 millimolar TRITON X 100™ nonionic detergent aqueous solution. Reaction Buff added to the solution, then DTNB to give the Reaction Mixture.
The reaction mixture thus obtained contains […] diheptanoly thio-PC substrate, 0.29 mm Triton X-100™ detergent, and 0.12 mm DTMB in a buffered aqueous solution at pH 7.5.
1. Add 0.2 ml reaction mixture to all wells;
2. Add 10 ul test compound (or solvent blank) to appropriate wells, mix 20 seconds;
3. Add 50 nanograms of sPLA2 (10 microliters) to appropriate wells;
4. Incubate plate at 40° C. for 30 minutes;
5. Read absorbance of wells at 405 nanometers with an automatic plate reader.
All compounds were tested in triplicate. Typically, compounds were tested am a final concentration of 5 ug/ml. […] Lack of color development at 405 nanometers evidenced inhibition. Compounds initially found to be active were reassayed to confirm their activity and, if sufficiently active, IC50 values were determined. […] In all cases, % inhibition measured at 405 nanometers generated by enzyme reactions containing inhibitors relative to the uninhibited control reactions was determined. Each sample was titrated in triplicate and result values were averaged for plotting and calculation of IC50 values. IC50 were determined by plotting log concentration versus inhibition values in the range from 10-90% inhibition.

As to `Cc1c(Cc2ccccc2)c2cccc(OCC(=O)O)c2n1CC(N)=O` [Example 1, [[1-(2-Amino-2-oxoethyl)-2-methyl-3-(phenylmethyl)-1H-indol-7-yl]oxy]acetic acid], the Kb in test [1] is 390 ± 120 nM. Moreover, the concentration for half-maximal inhibition (IC50) in test [2] came out at 13 ± 2 nM.

On to `CCc1c(Cc2ccccc2)c2ccc(OCCCC(=O)O)cc2n1CC(N)=O` [Example 2, 4-[[1-(2-amino-2-oxoethyl)-2-ethyl-3-(phenylmethyl)-1H-indol-6-yl]oxy]butyric acid], for which the Kb in test [1] came out at 1470 ± 340 nM. The half-maximal inhibitory concentration (IC50) in test [2] came out at 33 ± 3 nM.

For the compound `CCc1c(Cc2ccccc2)c2ccc(OCCCP(=O)(O)O)cc2n1CC(N)=O` [Example 3, [3-[[1-(2-amino-2-oxoethyl)-2-ethyl-3-(phenylmethyl)-1H-indol-6-yl]oxy]propyl]phosphonic acid], the Kb in test [1] is 415 ± 51 nM. In test [2], the IC50 was 35 ± 8 nM.

`Cc1c(Cc2ccccc2)c2cccc(OCC(=O)O)c2n1CC(=O)NN` [Example 4, [[1-(2-hydrazino-2-oxoethyl)-2-methyl-3-(phenylmethyl)-1H-indol-7-yl]oxy]acetic acid]: the Kb in test [1] is 1670 ± 280 nM. The IC50 in test [2] turned out to be 200 ± 90 nM.

For orientation: IC50 means the concentration needed to halve the response being measured.
